Laboratory results from US8410284B2, “Cyclic benzimidazole derivatives useful as anti-diabetic agents” (Merck Sharp & Dohme Corp, priority 2008, dated 2013).

Biological target: recombinant human AMPK complex 1 (containing α1β1γ1) (Homo sapiens, UniProt Q13131+Q9Y478)
Experiment: In vitro AMPK activation assay (AMPKSAMSF)
Type: biochemical
Settings: recombinant human AMPK complex 1 (α1β1γ1); for Emax: read-out: maximum AMP activation; for % Maximum AMP Activation of human AMPK Complex 1: basal activity subtracted
Protocol: AMPKSAMSF (In Vitro AMPK Activation Assay)
The recombinant human AMPK complex 1 (containing α1β1γ1) was obtained from baculovirus expression system. Recombinant viruses were generated by cotransfection of AMPK/pBacPak9 clones with Baculogold baculovirus DNA (Pharmingen) in spodoptera frugiperda 21 cells according to the manufacturer's instructions. Each round of virus amplification was performed for 5 days in Grace's medium containing 10% serum. Virus that had been subjected to three rounds of amplification was used for all protein production procedures. To express the AMPK complex, sf21 cells were adapted to serum free medium (SF900 II, Invitrogen) by sequential dilution from serum containing stocks into SF900 II medium and maintained in shaker flasks at 90 rpm at 27° C. The recombinant AMPK enzyme complex was produced by triple infection, one recombinant virus for each of the subunits, in sf21 cells under serum free conditions. Cells were infected in log phase, 1×10^6 cells/ml, at a multiplicity of infection of ˜5. Cells were harvested by centrifugation at 10,000×g for 15 minutes after 72 hours of infection with viruses. The insect cell pellet from 2 liters of culture was resuspended in 50 ml lysis buffer (20 mM Tris-HCl, 50 mM NaCl, 50 mM NaF, 30 mM Na PPi, 0.25 M sucrose, 10 mM ZnCl2, 2 mM DTT, 0.4 mg/ml digitonin) and subjected to two cycles of freeze-thaw lysis in a dry-ice ethanol bath. Insoluble material was removed by centrifugation at 10,000×g and the supernatant was fractionated with use of polyethylene glycol (PEG). The protein fraction precipitating between 2.5 and 6% PEG was used for further purification using a Blue-Sepharose step (Zhou et al, J. Clin. Invest. 108, 1167-1174, 2001).
The total in vitro AMPK activation assay volume is 50 μl in a 96-well plate. The reaction mixture contained 100 μM ATP (0.5 μCi ^33P-ATP per reaction), and 50 μM SAMS (HMRSAMSGLHLVKRR) in a buffer (20 mM HEPES, pH 7.0, 5 mM MgCl2, 0.01% Brij35). The reaction was initiated with addition of the enzyme. After 30-minute incubation at 30° C., the reaction was stopped by addition of 80 μl 1% H3PO4. Aliquots (100 μl) were transferred to 96-well MultiScreen plates (MAPHNOB50; Millipore Corp., Bedford, Mass., USA). The plate was washed three times with 1% H3PO4 followed by detection in a Top-count. The counts per minute from the basal activity (the reaction without activator) was subtracted from each well and the data were expressed as % maximum AMP activation followed by EC50 calculation.

Chain of recombinant human AMPK complex 1 (containing α1β1γ1) (Q13131 whole entry): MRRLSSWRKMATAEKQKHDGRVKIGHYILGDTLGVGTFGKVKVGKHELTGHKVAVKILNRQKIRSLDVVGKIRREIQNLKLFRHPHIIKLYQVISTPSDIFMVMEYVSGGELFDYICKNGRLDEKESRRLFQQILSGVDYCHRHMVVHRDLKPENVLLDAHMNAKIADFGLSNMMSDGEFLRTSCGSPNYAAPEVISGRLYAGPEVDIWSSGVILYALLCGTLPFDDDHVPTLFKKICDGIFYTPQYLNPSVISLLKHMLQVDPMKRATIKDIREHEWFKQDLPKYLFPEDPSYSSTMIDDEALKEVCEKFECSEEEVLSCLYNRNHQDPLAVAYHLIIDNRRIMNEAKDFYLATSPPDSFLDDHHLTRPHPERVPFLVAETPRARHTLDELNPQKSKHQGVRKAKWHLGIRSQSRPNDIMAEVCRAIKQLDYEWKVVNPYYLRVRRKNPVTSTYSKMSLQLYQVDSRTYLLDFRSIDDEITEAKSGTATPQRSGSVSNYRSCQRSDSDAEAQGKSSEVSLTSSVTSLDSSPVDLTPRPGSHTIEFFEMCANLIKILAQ
Chain of recombinant human AMPK complex 1 (containing α1β1γ1) (Q9Y478 whole entry): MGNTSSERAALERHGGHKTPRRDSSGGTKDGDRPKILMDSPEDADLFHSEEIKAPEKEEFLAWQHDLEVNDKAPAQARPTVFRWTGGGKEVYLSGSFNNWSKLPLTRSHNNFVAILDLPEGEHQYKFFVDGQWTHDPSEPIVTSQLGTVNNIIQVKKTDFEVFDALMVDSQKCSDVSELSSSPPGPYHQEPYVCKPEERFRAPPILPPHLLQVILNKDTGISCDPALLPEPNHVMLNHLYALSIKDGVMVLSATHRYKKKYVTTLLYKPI
Chain of recombinant human AMPK complex 1 (containing α1β1γ1) (P54619 whole entry partner): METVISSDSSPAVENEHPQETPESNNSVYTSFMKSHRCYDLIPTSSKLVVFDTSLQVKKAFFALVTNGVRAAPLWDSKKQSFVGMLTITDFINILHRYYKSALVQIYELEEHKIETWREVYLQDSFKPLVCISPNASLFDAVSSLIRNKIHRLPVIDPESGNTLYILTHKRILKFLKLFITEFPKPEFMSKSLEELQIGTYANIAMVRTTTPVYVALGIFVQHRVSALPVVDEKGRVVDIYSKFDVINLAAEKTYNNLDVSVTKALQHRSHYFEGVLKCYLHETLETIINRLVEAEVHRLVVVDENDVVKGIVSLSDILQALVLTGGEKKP

## Cc1ccc(Oc2nc3cc(-c4ccc(-c5ccccc5)cc4)c(Cl)cc3[nH]2)cc1[P@@]1(=O)OCC[C@H](c2cccc(Cl)c2)O1 (relative stereo) [Example 19, Trans-5-Biphenyl-4-yl-6-chloro-2-[3-[4-(3-chloro-phenyl)-2-oxo-2-lambda*5*-[1,3,2]dioxaphosphinan-2-yl]-4-methyl-phenoxy]-1H-benzoimidazole]
  Emax: > 80%

## Cc1ccc(Oc2nc3cc(-c4ccc(-c5ccccc5)cc4)c(Cl)cc3[nH]2)cc1[P@@]1(=O)OCC[C@@H](c2cccc(Cl)c2)O1 (relative stereo) [Example 20, Cis-5-Biphenyl-4-yl-6-chloro-2-[3-[4-(3-chloro-phenyl)-2-oxo-2-lambda*5*-[1,3,2]dioxaphosphinan-2-yl]4-methyl-phenoxy]-1H-benzoimidazole]
  Emax: > 80%

## Cc1ccc(Oc2nc3cc(-c4ccc(-c5ccccc5)cc4)c(Cl)cc3[nH]2)cc1[P@@]1(=O)OCC[C@H](c2ccncc2)O1 (relative stereo) [Example 21, Trans-5-Biphenyl-4-yl-6-chloro-2-[4-methyl-3-(2-oxo-4-pyridin-4-yl-2lambda*5*-[1,3,2]dioxophosphinan-2-yl)-phenoxy]-1H-benzoimidazole]
  Emax: > 80%

## Cc1ccc(Oc2nc3cc(-c4ccc(-c5ccccc5)cc4)c(Cl)cc3[nH]2)cc1[P@@]1(=O)OCC[C@@H](c2ccncc2)O1 (relative stereo) [Example 22, Cis-5-Biphenyl-4-yl-6-chloro-2-[4-methyl-3-(2-oxo-4-pyridin-4-yl-2lambda*5*-[1,3,2]dioxophosphinan-2-yl)-phenoxy]-1H-benzoimidazole]
  Emax: > 80%

## O=[P@@]1(c2cccc(Oc3nc4cc(-c5ccc(-c6ccccc6)cc5)c(Cl)cc4[nH]3)c2)OCC[C@@H](c2cccc(Cl)c2)O1 (relative stereo) [Example 23, Trans-5-Biphenyl-4-yl-6-chloro-2-[3-4-(3-chloro-phenyl)-2-oxo-2-lambda*5*-[1,3,2]dioxaphosphinan-2-ylphenoxy]-1H-benzoimidazole]
  Emax: > 80%

## Cc1ccc(Oc2nc3cc(-c4ccc(-c5ccccc5)cc4)c(Cl)cc3[nH]2)cc1P(=O)(O)O [Example 1, ((5-(4-Biphenyl)-6-chloro-1H-benzimidazol-2-yl)oxo)-4-methylphen-3-ylphosphonic acid]
  EC50: 0.9 nM
  % Maximum AMP Activation of human AMPK Complex 1: 175%
  Emax: > 80%

## Cc1ccc(Oc2nc3cc(C#Cc4ccccc4)c(Cl)cc3[nH]2)cc1P(=O)(O)O [Example 3, ((6-Chloro-5-phenylethynyl-1H-benzimidazol-2-yl)oxo)-4-methylphen-3-ylphosphonic acid]
  EC50: 0.7 nM
  % Maximum AMP Activation of human AMPK Complex 1: 192%
  Emax: > 80%

## Cc1ccc(Oc2nc3cc(-c4ccc(N5CCOCC5)cc4)c(Cl)cc3[nH]2)cc1P(=O)(O)O [Example 4, {5-[6-Chloro-5-(4-morpholin-4-yl-phenyl)-1H-benzoimidazol-2-yloxy]-2-methylphenyl}-phosphonic acid]
  Emax: > 80%

## Cc1ccc(Oc2nc3cc(-c4ccc(C5CCCCC5)cc4)c(Cl)cc3[nH]2)cc1P(=O)(O)O [Example 5, {5-[6-Chloro-5-(4-cyclohexyl-phenyl)-1H-benzoimidazol-2-yloxy]-2-methylphenyl}phosphonic acid]
  EC50: 4.9 nM
  % Maximum AMP Activation of human AMPK Complex 1: 257%
  Emax: > 80%

## Cc1ccc(Oc2nc3cc(-c4ccc(N5CCCC5)cc4)c(Cl)cc3[nH]2)cc1P(=O)(O)O [Example 6, {5-[6-Chloro-5-(4-pyrrolidin-1-yl-phenyl)-1H-benzoimidazol-2-yloxy]-2-methyl-phenyl}phosphonic acid]
  EC50: 1.1 nM
  % Maximum AMP Activation of human AMPK Complex 1: 223%
  Emax: > 80%

## O=P(O)(O)c1cccc(Oc2nc3cc(-c4ccc(N5CCOCC5)cc4)c(Cl)cc3[nH]2)c1 [Example 7, {3-[6-Chloro-5-(4-morpholin-4-yl-phenyl)-1H-benzoimidazol-2-yloxy]phenyl}phosphonic acid]
  Emax: > 80%

## Cc1ccc(Oc2nc3cc(-c4ccc(N5CCOCC5)cc4)c(Cl)cc3[nH]2)cc1P(=O)(O)O [Example 8, 5-(5-chloro-6-(4-morpholinophenyl)-1H-benzo[d]imidazol-2-yloxy)-2-methylphenylphosphonic acid]
  EC50: 1.2 nM
  % Maximum AMP Activation of human AMPK Complex 1: 224%

## Cc1ccc(Oc2nc3cc(-c4ccc5c(ccn5C)c4)c(Cl)cc3[nH]2)cc1P(=O)(O)O [Example 9, 5-(5-chloro-6-(1-methyl-1H-indol-5-yl)-1H-benzo[d]imidazol-2-yloxy)-2-methylphenylphosphonic acid]
  Emax: > 80%

## COc1ccc(C#Cc2cc3nc(Oc4ccc(C)c(P(=O)(O)O)c4)[nH]c3cc2Cl)cc1 [Example 10, 5-(5-chloro-6-(2-(4-methoxyphenyl)ethynyl)-1H-benzo[d]imidazol-2-yloxy)-2-methylphenylphosphonic acid]
  Emax: > 80%

## O=P(O)(O)c1cncc(Oc2nc3cc(-c4ccc(-c5ccccc5)cc4)c(Cl)cc3[nH]2)c1 [Example 12, [5-(5-Biphenyl-4-yl-6-chloro-1H-benzoimidazol-2-yloxy)-pyridin-3-yl]-phoshponic acid]
  Emax: > 80%

## O=P(O)(O)c1cccc(Oc2nc3cc(-c4ccc(-c5ccccc5)cc4)c(F)cc3[nH]2)c1 [Example 13, {3-[(5-biphenyl-4-yl-6-fluoro-1H-benzimidazol-2-yl)oxy]phenyl}phosphonic acid]
  Emax: > 80%

## O=C(c1cccc(P(=O)(O)O)c1)c1nc2cc(-c3ccc(-c4ccccc4)cc3)c(Cl)cc2[nH]1 [Example 14, {3-[(5-biphenyl-4-yl-6-chloro-1H-benzimidazol-2-yl)carbonyl]phenyl}phosphonic acid]
  Emax: > 80%

## O=P(O)(O)c1cccc(C(F)(F)c2nc3cc(-c4ccc(-c5ccccc5)cc4)c(Cl)cc3[nH]2)c1 [Example 15, {3-[(5-biphenyl-4-yl-6-chloro-1H-benzimidazol-2-yl)(difluoro)methyl]phenyl}phosphonic acid]
  Emax: > 80%

## Cn1ccc2cc(-c3cc4nc(Oc5cccc(P(=O)(O)O)c5)[nH]c4cc3Cl)ccc21 [Example 16, (3-{[6-chloro-5-(1-methyl-1H-indol-5-yl)-1H-benzimidazol-2-yl]oxy}phenyl)phosphonic acid]
  EC50: 0.6 nM
  % Maximum AMP Activation of human AMPK Complex 1: 173%
  Emax: > 80%

## CCOP(C)(=O)c1cccc(Oc2nc3cc(-c4ccc(-c5ccccc5)cc4)c(Cl)cc3[nH]2)c1 (stereo not drawn) [Example 17, [3-(5 Biphenyl-4-yl-6-chloro-1H-benzoimidazol-2-yloxy)-phenyl]-methyl-phosphinic acid ethyl ester]
  Emax: > 80%

## CP(=O)(O)c1cccc(Oc2nc3cc(-c4ccc(-c5ccccc5)cc4)c(Cl)cc3[nH]2)c1 [Example 18, [3-(5-Biphenyl-4-yl-6-chloro-1H-benzoimidazol-2-yloxy)-phenyl]-methyl-phosphinic acid]
  Emax: > 80%

## O=P1(c2cccc(Oc3nc4cc(-c5ccc(-c6ccccc6)cc5)c(Cl)cc4[nH]3)c2)OCCC(c2cccc(Cl)c2)O1 (stereo not drawn) [Example 24, Cis-5-Biphenyl-4-yl-6-chloro-2-[3-4-(3-chloro-phenyl)-2-oxo-2-lambda*5*-[1,3,2]dioxaphosphinan-2-ylphenoxy]-1H-benzoimidazole]
  Emax: > 80%
